Laboratory results as given in PMC9331544, “Molecular Physicochemical Properties of Selected Pesticides as Predictive Factors for Oxidative Stress and Apoptosis-Dependent Cell Death in Caco-2 and HepG2 Cells” (International Journal of Molecular Sciences, 2022).
Values after ≈ are worked out from the molar mass of the structure shown. Like-named read-outs stand apart in the source and are kept apart here.

Tests used:
Caco-2 cells [1] = experiment: Glutathione (GSH) content, Mercury Orange, flow cytometry; assay type: cell-based, human
Method: (§1) To assess GSH content, cells re-suspended in PBS (see Section 3.3.1) were incubated with 40 μM Mercury Orange (1-(4-chloromercuryphenyl-azo-2-naphtol) for 5 min (in the dark, room temperature), as described by du Plessis, et al..

HepG2 cells [2] = experiment: as above; assay type: cell-based, human
Method: as §1

Caco-2 cells [3] = conditions: Caco-2, 24 h, ref [34], cited from earlier work
Caco-2 cells [4] = conditions: for Caco-2 FL2/FL1 ratio: mean ± SD
Description: (§2) Given the role of mitochondria in both oxidative stress and cell death (apoptosis), we evaluated the mitochondrial membrane potential (MMP) using the JC-1 probe (see methods for details). This probe accumulates in the mitochondria in the form of J-aggregates when in normal mitochondrial conditions (polarized) and presents red fluorescence. By contrast, in unhealthy cells, when depolarization occurs, JC-1 enters the mitochondria in lower concentrations forming monomers inducing a fluorescence shift to green fluorescence, thus the loss of MMP is observed through flow cytometry as a reduction in red (FL2) and an increase in green (FL1) fluorescence, or as a reduction in red/green (FL2/FL1) fluorescence ratio [45, 46].
(§3) Pesticide-induced oxidative stress and apoptosis/necrosis events were analysed by flow cytometry. For this, one colour and two-colour flow cytometry assays were performed, using a BD Accuri™ C6 cytometer (Franklin Lakes, NJ, USA) equipment for data acquisition. Each assay was performed at least in triplicate (n = 3) and 5000 gated events were collected from each sample. Data analysis was performed using BD Accuri™ C6 Software, version 1.0.264.21 supplied by Becton Dickinson (Franklin Lakes, NJ, USA).
(§4) Caco-2 and HepG2 cells (handled as described in Section 3.2.1) were seeded in 12-well microplates (at 5 × 10^4 cells/mL density; 750 µL/well), and allowed to adhere and stabilize for 48 h in the incubator. […] Negative control cells (non-exposed cells) were included in each assay. After a 24 h incubation with test solutions, cells were washed with phosphate buffer saline (PBS) solution and then detached from the microplates (as in Section 3.2.1) and placed in centrifuge tubes and centrifuged (5 min, 3000 rpm, bench micro-centrifuge). After eliminating the supernatant, cells were washed in PBS solution through another centrifuge cycle. Then cells were divided before being incubated with the specific markers to assess oxidative stress markers and cell apoptosis/necrosis.
(§5) Mitochondrial membrane potential was analysed using JC-1 probe following the procedures as described by the manufacturer. Caco-2 and HepG2 cells suspended in PBS were centrifuged (5 min, 3000 rpm, bench micro-centrifuge), the supernatant was removed and 200 μL of JC-1 solution (2 μM; diluted in FBS-free culture media) was added to each sample. The samples were incubated for 20 min at 37 °C (in a CO2 incubator) and then analysed by flow cytometry. Negative control, non-exposed, and positive control cells exposed to the protonophore FCCP (5 μM; carbonyl cyanide p-trifluoromethoxyphenylhydrazone) were performed in each set of experiments.

HepG2 cells [5] = conditions: 24 h; for HepG2 FL2/FL1 ratio: mean ± SD
Description: as §2, §3, §4, §5

Caco-2 cells [6] = experiment: Lipid peroxidation, DHPE-FITC probe, flow cytometry; assay type: cell-based, human; conditions: Caco-2, 24 h, tested concentrations
Method: (§6) Lipid peroxidation was evaluated using the DHPE-FITC probe. Cells re-suspended in PBS (see Section 3.3.1) were incubated with 20 μM DHPE-FITC, for 20 min in the dark at room temperature (as describe).

HepG2 cells [7] = experiment: as above; assay type: cell-based, human; conditions: HepG2, 24 h, tested concentrations
Method: as §6

Caco-2 cells [8] = experiment: Literature: Caco-2 cell viability; assay type: cell-based, human; conditions: Caco-2, 24 h, ref [34] value vs Table 1
Caco-2 cells [9] = experiment: Intracellular ROS content, DCFDA, flow cytometry; assay type: cell-based, human; conditions: 24 h
Method: (§7) To assess pesticides-induced oxidative stress, the intracellular content in reactive oxygen species (ROS), content in glutathione (GSH), and lipid peroxidation was quantified by flow cytometry, following the methods described by Domínguez-Perles, et al. and Queiroz, et al.. Briefly, to assess ROS content, cells re-suspended in PBS (from Section 3.3.1) were centrifuged (5 min, 3000 rpm, bench micro-centrifuge) and, after eliminating the supernatant, 200 μL of 10 µM DCFDA solution (prepared in FBS-free DMEM) was added to each sample. After a 45 min incubation at 37 °C (in the dark, in an incubator), cells were centrifuged to remove excess of probe and re-suspended in PBS. Finally, 5 μL of propidium iodide (PI; 50 μg/mL) was added to each sample 3 min before flow cytometry acquisition.

HepG2 cells [10] = experiment: Intracellular ROS content, DCFDA, flow cytometry; assay type: cell-based, human; conditions: HepG2, 75 μM, 24 h
Method: as §7

Caco-2 cells [11] = test system: Caco-2 cells; parameters: method as in doi:10.1016/j.envpol.2020.114660; conditions: Caco-2, 30 µg/mL (~100 µM), fluorescence microscopy; ref [34]; cited from earlier work
[12] = ref [47],[48],[49],[50]; cited from earlier work

For `C=CCOC(Cn1ccnc1)c1ccc(Cl)cc1Cl` (centres unmarked) [Imazalil, imazalil], the “increase in GSH content vs control” value (Caco-2 cells [1]; Caco-2, 250 μM, 24 h) was 1.59 fold, the “change in GSH content vs control (in words)” value (Caco-2 cells [1]; Caco-2, 24 h, tested concentrations) was “dose-dependent increase in GSH content” and the “increase in GSH content vs control” value (HepG2 cells [2]; HepG2, 75 μM, 24 h) was 1.97 fold. The “change in GSH content vs control (in words)” value (HepG2 cells [2]; HepG2, 24 h, tested concentrations) was “dose-dependent increase in GSH content”, the IC50 (Caco-2 cells [3]; converted value, read-out: IC50 (cytotoxicity)) was about 100 µM and the “IC50 (cytotoxicity)” value (Caco-2 cells [3]) was 30 mg/L (≈ 101 µM). For the same compound, the “FL2/FL1 ratio reduction (% of control)” value (Caco-2 cells [4]; Caco-2, 50 μM, 24 h) was 30.83±9.05 % of control, the “Caco-2 FL2/FL1 ratio” value (Caco-2 cells [4]; Caco-2, 50 μM, 24 h) was 0.55±0.02 and the “FL2/FL1 ratio reduced, relative to negative control” value (Caco-2 cells [4]; Caco-2, 75 μM, 24 h) was 1.54 times. For the same compound, the “FL2/FL1 ratio reduction (% of control)” value (Caco-2 cells [4]; Caco-2, 75 μM, 24 h) was 34.30±6.61 % of control, the “Caco-2 FL2/FL1 ratio” value (Caco-2 cells [4]; Caco-2, 75 μM, 24 h) was 0.52±0.03 and the “FL2/FL1 ratio reduction (% of control)” value (Caco-2 cells [4]; Caco-2, 75 μM, 24 h, listed as IMZ) was ~ 34 % of control. The “FL2/FL1 ratio reduction (% of control)” value (Caco-2 cells [4]; Caco-2, 250 μM, 24 h) was 96.08±0.47 % of control, the “Caco-2 FL2/FL1 ratio” value (Caco-2 cells [4]; Caco-2, 250 μM, 24 h) was 0.03±0.01 and the “change in mitochondrial membrane potential (in words)” value (Caco-2 cells [4]; Caco-2, 24 h, tested concentrations, listed as IMZ) was “induced high changes in Caco-2 MMP”. The “FL2/FL1 ratio reduction (% of control)” value (HepG2 cells [5]; HepG2, 25 μM) was 56.22±16.07 % of control, the “HepG2 FL2/FL1 ratio” value (HepG2 cells [5]; HepG2, 25 μM) was 0.10±0.03 and the “FL2/FL1 ratio reduction (% of control)” value (HepG2 cells [5]; HepG2, 50 μM) was 57.15±8.10 % of control. The “HepG2 FL2/FL1 ratio” value (HepG2 cells [5]; HepG2, 50 μM) was 0.10±0.02, the “FL2/FL1 ratio reduced, relative to negative control” value (HepG2 cells [5]; HepG2, 75 μM) was 3.38 times and the “FL2/FL1 ratio reduction (% of control)” value (HepG2 cells [5]; HepG2, 75 μM) was 72.95±0.28 % of control. For the same compound, the “HepG2 FL2/FL1 ratio” value (HepG2 cells [5]; HepG2, 75 μM) was 0.06±0.01, the “FL2/FL1 ratio reduction (% of control)” value (HepG2 cells [5]; HepG2, 75 μM, listed as IMZ) was ~ 73 % of control and the “lipid peroxidation (LP) vs control (in words)” value (Caco-2 cells [6]) was “induced significant LP”. The “lipid peroxidation (LP) vs control (in words)” value (HepG2 cells [7]) was “did not increase lipid peroxidation”, the “literature IC50 lower than the IC50 here reported” value (Caco-2 cells [8]) was 2.53 fold and the “increase in ROS content compared with control” value (“increase … with control” for short) (Caco-2 cells [9]; Caco-2, 75 μM) was 2.40 fold. The “increase … with control” value (Caco-2 cells [9]; Caco-2, 250 μM) was 6.5 fold, the “increase … with control” value (HepG2 cells [10]) was 4.56 fold and the “ROS content (in words)” value (Caco-2 cells [11]) was “increase in ROS content”. For the same compound, the “H-bond (donor count)” value [12] was 0 and the “H-donor (acceptor count)” value [12] was 2.
